# Test system: IFNα-Induced STAT Phosphorylation (pSTAT5)
# Assay: IFNα-Induced STAT Phosphorylation in Human Whole Blood
# Type: cell-based
# Conditions: 1 h incubation with compound, then 1000 U/mL recombinant human IFNα A/D for 15 min, pSTAT5 in CD3 positive population, read-out: Human Whole blood IFNa pSTAT5 IC50
# Method: IFNα-Induced STAT Phosphorylation in Human Whole Blood
# After an hour long incubation with compound, human whole blood (drawn with ACD-A as anticoagulant) was stimulated with 1000 U/mL recombinant human IFNα A/D (R&D Systems 11200-2) for 15 min. The stimulation was stopped by adding Fix/Lyse buffer (BD 558049). Cells were stained with a CD3 FITC antibody (BD 555916), washed, and permeabilized on ice using Perm III buffer (BD 558050). Cells were then stained with an Alexa-Fluor 647 pSTAT5 (pY694) antibody (BD 612599) for 60 min prior to analysis on the iQue Plus. The amount of pSTAT5 expression was quantitated by median fluorescence intensity after gating on the CD3 positive population.
row,IC50,Compound
1,110 nM,"[2H]C([2H])([2H])NC(=O)c1nnc(NC(=O)C2CC2C)cc1Nc1ncccc1S(=O)(=O)C(F)F (single isomer, unassigned) [Example 13a, 4-((3-((difluoromethyl)sulfonyl)pyridin-2-yl)amino)-N-(methyl-d3)-6-(2-methylcyclopropane-1-carboxamido)pyridazine-3-carboxamide]"
2,10 nM,"[2H]C([2H])([2H])NC(=O)c1nnc(NC(=O)C2CC2C)cc1Nc1ncccc1S(=O)(=O)C(F)F (single isomer, unassigned) [Example 13b, 4-((3-((difluoromethyl)sulfonyl)pyridin-2-yl)amino)-N-(methyl-d3)-6-(2-methylcyclopropane-1-carboxamido)pyridazine-3-carboxamide]"
3,1400 nM,"CCC(=O)c1cnc(NC(=O)C2CC2C)cc1Nc1ncccc1S(=O)(=O)C(F)F (single isomer, unassigned) [Example 21a, N-(4-((3-((difluoromethyl)sulfonyl)pyridin-2-yl)amino)-5-propionylpyridin-2-yl)-2-methylcyclopropane-1-carboxamide]"
4,50 nM,"CCC(=O)c1cnc(NC(=O)C2CC2C)cc1Nc1ncccc1S(=O)(=O)C(F)F (single isomer, unassigned) [Example 21b, N-(4-((3-((difluoromethyl)sulfonyl)pyridin-2-yl)amino)-5-propionylpyridin-2-yl)-2-methylcyclopropane-1-carboxamide]"

row,Compound,IC50
1,CCC(=O)c1cnc(NC(=O)[C@@H]2CC23CC3)cc1Nc1ncccc1S(=O)(=O)C(F)F [Example 17],960 nM

# Same assay, conditions: Homo sapiens, 1 h incubation with compound, then 1000 U/mL recombinant human IFNα A/D for 15 min, pSTAT5 in CD3 positive population, read-out: Human Whole blood IFNa pSTAT5 IC50
row,IC50,Compound
1,70 nM,"[2H]C([2H])([2H])NC(=O)c1nnc(NC(=O)C2CC2)cc1Nc1ncccc1S(=O)(=O)C1CC1 [Example 1, 6-(cyclopropanecarboxamido)-4-((3-(cyclopropylsulfonyl)pyridin-2-yl)amino)-N-(methyl-d3) pyridazine-3-carboxamide]"
2,670 nM,"[2H]C([2H])([2H])NC(=O)c1nnc(NC(=O)OC)cc1Nc1ncccc1S(=O)(=O)C1CC1 [Example 2, methyl (5-((3-(cyclopropylsulfonyl)pyridin-2-yl)amino)-6-((methyl-d3)carbamoyl)pyridazin-3-yl)carbamate]"
3,590 nM,"CCC(=O)c1cnc(NC(=O)C2CC2)cc1Nc1ncccc1S(=O)(=O)C1CC1 [Example 3, N-(4-((3-(cyclopropylsulfonyl)pyridin-2-yl)amino)-5-propionylpyridin-2-yl)cyclopropanecarboxamide]"
4,30 nM,"[2H]C([2H])([2H])NC(=O)c1nnc(NC(=O)C2CC2)cc1Nc1ncccc1S(=O)(=O)C(F)F [Example 4, 6-(cyclopropanecarboxamido)-4-((3-((difluoromethyl)sulfonyl)-pyridin-2-yl)amino)-N-(methyl-d3)pyridazine-3-carboxamide]"
5,250 nM,"[2H]C([2H])([2H])NC(=O)c1nnc(NC(=O)OC)cc1Nc1ncccc1S(=O)(=O)C(F)F [Example 5, methyl (5-((3-((difluoromethyl)-sulfonyl)pyridin-2-yl)amino)-6-((methyl-d3)carbamoyl)-pyridazin-3-yl)carbamate]"
6,210 nM,"[2H]C([2H])([2H])NC(=O)c1nnc(NC(=O)N(C)C)cc1Nc1ncccc1S(=O)(=O)C(F)F [Example 6, 4-((3-((difluoromethyl)sulfonyl)pyridin-2-yl)amino)-6-(3,3-dimethylureido)-N-(methyl-d3)pyridazine-3-carboxamide]"
7,150 nM,"CCC(=O)c1cnc(NC(=O)C2CC2)cc1Nc1ncccc1S(=O)(=O)C(F)F [Example 15, N-(4-((3-((difluoromethyl)sulfonyl)pyridin-2-yl)amino)-5-propionylpyridin-2-yl)cyclopropanecarboxamide]"
8,980 nM,"CCC(=O)c1cnc(NC(=O)N(C)C)cc1Nc1ncccc1S(=O)(=O)C(F)F [Example 16, 3-(4-((3-((difluoromethyl)sulfonyl)pyridin-2-yl)amino)-5-propionylpyridin-2-yl)-1,1-dimethylurea]"
9,850 nM,"CCC(=O)c1cnc(NC(=O)[C@H]2C[C@@H]2C)cc1Nc1ncccc1S(=O)(=O)C(F)F [Example 18, (1S,2S)-N-(4-((3-((difluoromethyl)sulfonyl)pyridin-2-yl)amino)-5-propionylpyridin-2-yl)-2-methylcyclopropane-1-carboxamide]"
10,460 nM,"CCC(=O)c1cnc(NC(=O)[C@H]2C[C@@H]2F)cc1Nc1ncccc1S(=O)(=O)C(F)F [Example 20, (1R,2S)-N-(4-((3-((difluoromethyl)sulfonyl)pyridin-2-yl)amino)-5-propionylpyridin-2-yl)-2-fluorocyclopropane-1-carboxamide]"
11,220 nM,"CCC(=O)c1cnc(Nc2cccc(F)n2)cc1Nc1ncccc1S(=O)(=O)C(F)F [Example 22, 1-(4-((3-((difluoromethyl)sulfonyl)pyridin-2-yl)amino)-6-((6-fluoropyridin-2-yl)amino)pyridin-3-yl)propan-1-one]"

# — patent US20250066322A1, “SUBSTITUTED HETEROCYCLIC COMPOUNDS” (BRISTOL-MYERS SQUIBB COMPANY, priority 2021, published 2025)
